PMC8286840, “Identifying SARS-CoV-2 antiviral compounds by screening for small molecule inhibitors of Nsp3 papain-like protease” (Biochemical Journal, 2021)
Where a name gives a salt, the structure may show the parent alone. Read-outs that look alike come from different tables or passages of the source.

Assays:
[1] = target: T1, SARS-CoV-2 PLpro (nsp3 1564–1878) (Severe acute respiratory syndrome coronavirus 2, UniProt P0DTD1); test: biochemical; design: FRET-quenched peptide (Pro3) cleavage by PLpro, 10 min pre-incubation, slope over 20 min, normalised to no-compound control; settings: low concentration screen, read-out: % of control remaining
[2] = target: T1, SARS-CoV-2 PLpro (nsp3 1564–1878); test: biochemical; design: FRET-quenched peptide (Pro3) cleavage by PLpro, 10 min pre-incubation, slope over 20 min, normalised to no-compound control; settings: high concentration screen, read-out: % of control remaining

CC(=O)OCC(=O)NCCCOc1cccc(CN2CCCCC2)c1 [Roxatidine acetate.HCl]
remaining activity at 1.25 µM ([1]; Well no.=2235): 97.2%
remaining activity at 3.75 µM ([2]; Well no.=2235): 101%

CC[C@H]1OC(=O)[C@H](C)[C@@H](O[C@H]2C[C@@](C)(OC)[C@@H](O)[C@H](C)O2)[C@H](C)[C@@H](O[C@@H]2O[C@H](C)C[C@H](N(C)C)[C@H]2O)[C@](C)(O)C[C@@H](C)/C(=N\OCOCCOC)[C@H](C)[C@@H](O)[C@]1(C)O [Roxithromycin]
remaining activity at 1.25 µM ([1]; Well no.=2237): 101%
remaining activity at 3.75 µM ([2]; Well no.=2237): 102%

C=C1C(=O)[C@]23[C@H](CC[C@@H]1[C@@H]2O)[C@]12CO[C@@]3(O)[C@H](O)[C@H]1C(C)(C)CC[C@@H]2O [Rubescensin A]
remaining activity at 1.25 µM ([1]; Well no.=3707): 95.2%
remaining activity at 3.75 µM ([2]; Well no.=3707): 93.6%

CN1CCN(c2c(F)cc3c(=O)c(C(=O)O)cn4c3c2SCC4)CC1 [Rufloxacin]
remaining activity at 1.25 µM ([1]; Well no.=2239): 98.6%
remaining activity at 3.75 µM ([2]; Well no.=2239): 97.3%

Cc1cncc(CN2CCC(=C3c4ccc(Cl)cc4CCc4cccnc43)CC2)c1 [Rupatadine (Fumarate)]
remaining activity at 1.25 µM ([1]; Well no.=7665): 98.2%
remaining activity at 3.75 µM ([2]; Well no.=7665): 102%

Cc1cncc(CN2CCC(=C3c4ccc(Cl)cc4CCc4cccnc43)CC2)c1 [Rupatadine Fumarate]
remaining activity at 1.25 µM ([1]; Well no.=4925): 103%
remaining activity at 3.75 µM ([2]; Well no.=4925): 101%

O=c1c2ccccc2nc2n1CCc1c-2[nH]c2ccccc12 [Rutaecarpine]
remaining activity at 1.25 µM ([1]; Well no.=1396): 96.2%
remaining activity at 1.25 µM ([1]; Well no.=3709): 100%
remaining activity at 3.75 µM ([2]; Well no.=1396): 99.4%
remaining activity at 3.75 µM ([2]; Well no.=3709): 101%

C[C@@H]1O[C@@H](OC[C@H]2O[C@@H](Oc3c(-c4ccc(O)c(O)c4)oc4cc(O)cc(O)c4c3=O)[C@H](O)[C@@H](O)[C@@H]2O)[C@H](O)[C@H](O)[C@H]1O [Rutin]
remaining activity at 1.25 µM ([1]; Well no.=3711): 103%
remaining activity at 3.75 µM ([2]; Well no.=3711): 106%

N#CC[C@H](C1CCCC1)n1cc(-c2ncnc3[nH]ccc23)cn1 [Ruxolitinib (INCB018424)]
remaining activity at 1.25 µM ([1]; Well no.=4805): 103%
remaining activity at 3.75 µM ([2]; Well no.=4805): 104%

CC(C)[C@@]1(O)[C@@H](OC(=O)c2ccc[nH]2)[C@@]2(O)[C@@]3(C)C[C@]4(O)O[C@@]5([C@H](O)[C@@H](C)CC[C@]35O)[C@@]2(O)[C@@]14C [Ryanodine]
remaining activity at 1.25 µM ([1]; Well no.=3583): 104%
remaining activity at 3.75 µM ([2]; Well no.=3583): 105%

Cc1ccc(NC2=CC(=O)c3sc(C)nc3C2=O)cc1 [Ryuvidine - 2-Methyl-5-[(4-methylphenyl)amino]-4,7-benzothiazoledione]
remaining activity at 1.25 µM ([1]; Well no.=2584): 86.3%
remaining activity at 3.75 µM ([2]; Well no.=2584): 85%

Cc1c(-c2c(-c3ccc(F)o3)sc3ncnc(O[C@H](Cc4ccccc4OCc4ccnn4CC(F)(F)F)C(=O)O)c23)ccc(OCCN2CCN(C)CC2)c1Cl [S63845]
remaining activity at 1.25 µM ([1]; Well no.=7208): 92.6%
remaining activity at 3.75 µM ([2]; Well no.=7208): 88.1%

CC(C)Cc1ccc([C@H](C)C(=O)O)cc1 [S(+)-Ibuprofen]
remaining activity at 1.25 µM ([1]; Well no.=825): 103%
remaining activity at 3.75 µM ([2]; Well no.=825): 105%

CC(C)NCC(O)c1ccc(O)c(O)c1 (stereo not drawn) [S(+)-Isoproterenol (+)-bitartrate]
remaining activity at 1.25 µM ([1]; Well no.=823): 102%
remaining activity at 3.75 µM ([2]; Well no.=823): 105%

CCCN1CCO[C@@H]2c3cc(O)ccc3OC[C@H]21 [S(+)-PD 128,907 hydrochloride]
remaining activity at 1.25 µM ([1]; Well no.=1265): 102%
remaining activity at 3.75 µM ([2]; Well no.=1265): 104%

CCN1CCC[C@H]1CNC(=O)c1c(O)c(Cl)cc(Cl)c1OC [S(+)-Raclopride L-tartrate]
remaining activity at 1.25 µM ([1]; Well no.=1354): 104%
remaining activity at 3.75 µM ([2]; Well no.=1354): 103%

CCCN1CCC[C@@H](c2cccc(C#N)c2)C1 [S(-)-DS 121 hydrochloride]
remaining activity at 1.25 µM ([1]; Well no.=596): 100%
remaining activity at 3.75 µM ([2]; Well no.=596): 101%

CCN1CCC[C@H]1CNC(=O)c1c(OC)ccc(I)c1O [S(-)-IBZM]
remaining activity at 1.25 µM ([1]; Well no.=875): 98.1%
remaining activity at 3.75 µM ([2]; Well no.=875): 99.1%

CC(C)(C)NCC(O)COc1nsnc1N1CCOCC1 (stereo not drawn) [S(-)-Timolol maleate]
remaining activity at 1.25 µM ([1]; Well no.=1483): 97.1%
remaining activity at 3.75 µM ([2]; Well no.=1483): 96%

CCCN(CCC)[C@H]1CCc2c(F)ccc(O)c2C1 [S(-)-UH-301 hydrochloride]
remaining activity at 1.25 µM ([1]; Well no.=1334): 97.2%
remaining activity at 3.75 µM ([2]; Well no.=1334): 95.3%

N[C@@H](Cn1ccc(=O)[nH]c1=O)C(=O)O [S(-)-Willardiine]
remaining activity at 1.25 µM ([1]; Well no.=1244): 100%
remaining activity at 3.75 µM ([2]; Well no.=1244): 99.9%

Brc1ccc([C@H]2CN3CCSC3=N2)cc1 [S(-)-p-Bromotetramisole oxalate]
remaining activity at 1.25 µM ([1]; Well no.=99): 104%
remaining activity at 3.75 µM ([2]; Well no.=99): 102%

N[C@@H](Cn1cc(I)c(=O)[nH]c1=O)C(=O)O [S-5-Iodowillardiine]
remaining activity at 1.25 µM ([1]; Well no.=1340): 102%
remaining activity at 3.75 µM ([2]; Well no.=1340): 99.5%

Nc1nc(SCc2ccc([N+](=O)[O-])cc2)c2ncn([C@@H]3O[C@H](CO)[C@@H](O)[C@H]3O)c2n1 [S-(4-Nitrobenzyl)-6-thioguanosine]
remaining activity at 1.25 µM ([1]; Well no.=53): 101%
remaining activity at 3.75 µM ([2]; Well no.=53): 102%

O=[N+]([O-])c1ccc(CSc2ncnc3c2ncn3[C@@H]2O[C@H](CO)[C@@H](O)[C@H]2O)cc1 [S-(4-Nitrobenzyl)-6-thioinosine]
remaining activity at 1.25 µM ([1]; Well no.=949): 105%
remaining activity at 3.75 µM ([2]; Well no.=949): 101%

C[C@@](Cc1ccc(O)c(O)c1)(NN)C(=O)O [S-(-)-Carbidopa]
remaining activity at 1.25 µM ([1]; Well no.=677): 99.2%
remaining activity at 3.75 µM ([2]; Well no.=677): 97.9%

CCc1cc(Cl)c(OC)c(C(=O)NC[C@@H]2CCN(CC)C2)c1O [S-(-)-Eticlopride hydrochloride]
remaining activity at 1.25 µM ([1]; Well no.=417): 102%
remaining activity at 3.75 µM ([2]; Well no.=417): 101%

[N-]=[N+]=Nc1ccc(C(=O)CSC[C@H](NC(=O)CC[C@H](N)C(=O)O)C(=O)NCC(=O)O)cc1 [S-(p-Azidophenacyl)glutathione]
remaining activity at 1.25 µM ([1]; Well no.=105): 107%
remaining activity at 3.75 µM ([2]; Well no.=105): 110%

C=CCSC[C@H](N)C(=O)O [S-Allyl-L-cysteine]
remaining activity at 1.25 µM ([1]; Well no.=5435): 99.1%
remaining activity at 3.75 µM ([2]; Well no.=5435): 97%

CCSC(=N)N [S-Ethylisothiourea hydrobromide]
remaining activity at 1.25 µM ([1]; Well no.=459): 102%
remaining activity at 3.75 µM ([2]; Well no.=459): 101%

COC(=O)[C@@H](N)CSC/C=C(\C)CC/C=C(\C)CCC=C(C)C [S-Farnesyl-L-cysteine methylester]
remaining activity at 1.25 µM ([1]; Well no.=4566): 98.6%
remaining activity at 3.75 µM ([2]; Well no.=4566): 99.1%

CSC(=N)NCCC[C@H](N)C(=O)O [S-Methyl-L-thiocitrulline acetate]
remaining activity at 1.25 µM ([1]; Well no.=1024): 101%
remaining activity at 3.75 µM ([2]; Well no.=1024): 101%

CSC(=N)N [S-Methylisothiourea hemisulfate]
remaining activity at 1.25 µM ([1]; Well no.=924): 108%
remaining activity at 3.75 µM ([2]; Well no.=924): 103%

CC(=O)N[C@@H](C(=O)O)C(C)(C)SN=O [S-Nitroso-N-acetylpenicillamine]
remaining activity at 1.25 µM ([1]; Well no.=1045): 99.8%
remaining activity at 3.75 µM ([2]; Well no.=1045): 98.3%
